Holding throughout (type): biochemical
The target in assay [1] is T1, Tie-2 (Homo sapiens, UniProt Q02763).
T1 construct: A recombinant fusion protein of GST and the intracellular domains of Tie-2, expressed in insect cells (Hi-5); GST; made in house; host or cells: Hi-5 insect cells
In words: Tie-2-Kinase HTRF-Assay without Kinase Preactivation (assay 2). To be noted: 10 μM ATP, no kinase preactivation. From the text: Tie2-inhibitory activity of compounds of the present invention was quantified employing two Tie2 HTRF assay as described in the following paragraphs.
A recombinant fusion protein of GST and the intracellular domains of Tie-2, expressed in insect cells (Hi-5) and purified by Glutathion-Sepharose affinity chromatography was used as kinase. Alternatively, commercially available GST-Tie2-fusion protein (Upstate Biotechnology, Dundee, Scotland) can be used As substrate for the kinase reaction the biotinylated peptide biotin-Ahx-EPKDDAYPLYSDFG (C-terminus in amid form) was used which can be purchased e.g. from the company Biosynthan GmbH (Berlin-Buch, Germany). Detection of phosphorylated product is achieved specifically by a trimeric detection complex consisting of the phosphorylated substrate, streptavidin-XLent (SA-XLent) which binds to biotin, and Europium Cryptate-labeled anti-phosphotyrosine antibody PT66 which binds to phosphorylated tyrosine.
Tie-2 (3.5 ng/measurement point) was incubated for 60 min at 22° C. in the presence of 10 μM adenosine-tri-phosphate (ATP) and 1 μM substrate peptide (biotin-Ahx-EPKDDAYPLYSDFG-NH2) with different concentrations of test compounds (0 μM and concentrations in the range 0.001-20 μM) in 5 μl assay buffer [50 mM Hepes/NaOH pH 7, 10 mM MgCl2, 0.5 mM MnCl2, 1.0 mM dithiothreitol, 0.01% NP40, protease inhibitor mixture (“Complete w/o EDTA” from Roche, 1 tablet per 2.5 ml), 1% (v/v) dimethylsulfoxide]. The reaction was stopped by the addition of 5 μl of an aqueous buffer (25 mM Hepes/NaOH pH 7.5, 0.28% (w/v) bovine serum albumin) containing EDTA (90 mM) and the HTRF (Homogeneous Time Resolved Fluorescence) detection reagents streptavidine-XLent (0.2 μM, from Cis Biointernational, Marcoule, France) and PT66-Eu-Chelate (0.3 ng/μl; a europium-chelate labelled anti-phospho-tyrosine antibody from Perkin Elmer).
(§1) The resulting mixture was incubated 1 h at 22° C. to allow the binding of the biotinylated phosphorylated peptide to the streptavidine-XLent and the PT66-Eu-Chelate. Subsequently the amount of phosphorylated substrate peptide was evaluated by measurement of the resonance energy transfer from the PT66-Eu-Chelate to the streptavidine-XLent. Therefore, the fluorescence emissions at 620 nm and 665 nm after excitation at 350 nm was measured in a HTRF reader, e.g. a Rubystar (BMG Labtechnologies, Offenburg, Germany) or a Viewlux (Perkin-Elmer). The ratio of the emissions at 665 nm and at […] was taken as the measure for the amount of phosphorylated substrate peptide. The data were normalised (enzyme reaction without inhibitor=0% inhibition, all other assay components but no enzyme=100% inhibition) and IC50 values were calculated by a 4 parameter fit using an inhouse software.
For orientation: In TR-FRET formats the signal depends on donor and acceptor labels being close together.

The target of assay [2] is T2, CDK2/CycE (Homo sapiens, UniProt P24941).
T2 construct: GST; purchased ProQinase GmbH (Freiburg, Germany); host or cells: Sf9 insect cells
In words: CDK2 HTRF Assay (assay 4). As to conditions: pIC50 = −log IC50 in molar concentration; 10 μM ATP. From the text: CDK2/CycE—inhibitory activity of compounds of the present invention was quantified employing the CDK2/CycE HTRF assay as described in the following paragraphs.
Recombinant fusion proteins of GST and human CDK2 and of GST and human CycE, expressed in insect cells (Sf9) and purified by Glutathion-Sepharose affinity chromatography, were purchase from ProQinase GmbH (Freiburg, Germany). As substrate for the kinase reaction biotinylated peptide biotin-Ttds-YISPLKSPYKISEG (C-terminus in amid form) was used which can be purchased e.g. form the company JERINI peptide technologies (Berlin, Germany).
CDK2/CycE was incubated for 60 min at 22° C. in the presence of different concentrations of test compounds in 5 μl assay buffer [50 mM Tris/HCl pH […], 1.0 mM dithiothreitol, 0.1 mM sodium ortho-vanadate, 10 μM adenosine-tri-phosphate (ATP), 0.75 μM substrate, 0.01% (v/v) Nonidet-P40 (Sigma), 1% (v/v) dimethylsulfoxide]. The concentration of CDK2/CycE was adjusted depending of the activity of the enzyme lot and was chosen appropriate to have the assay in the linear range, typical concentrations were in the range of 1 ng/ml. The reaction was stopped by the addition of 5 μl of a solution of HTRF detection reagents (0.2 μM streptavidine-XLent and 3.4 nM Phospho-(Ser) CDKs Substrate Antibody [product #2324B, Cell Signalling Technology, Danvers, Mass., USA} and 4 nM Prot-A-EuK [Protein A labeled with Europium Cryptate from Cis biointernational, France, product no. 61PRAKLB]) in an aqueous EDTA-solution (100 mM EDTA, 800 mM KF, 0.2% (w/v) bovine serum albumin in 100 mM HEPES/NaOH pH 7.0).

In assay [3] the target is T3, human KDR (Homo sapiens, UniProt P35968).
T3 construct: GST-tagged recombinant kinase domain of the human KDR; GST; host or cells: SF-9 insect cells
T3 sequence (P35968 834-1162 limits assumed): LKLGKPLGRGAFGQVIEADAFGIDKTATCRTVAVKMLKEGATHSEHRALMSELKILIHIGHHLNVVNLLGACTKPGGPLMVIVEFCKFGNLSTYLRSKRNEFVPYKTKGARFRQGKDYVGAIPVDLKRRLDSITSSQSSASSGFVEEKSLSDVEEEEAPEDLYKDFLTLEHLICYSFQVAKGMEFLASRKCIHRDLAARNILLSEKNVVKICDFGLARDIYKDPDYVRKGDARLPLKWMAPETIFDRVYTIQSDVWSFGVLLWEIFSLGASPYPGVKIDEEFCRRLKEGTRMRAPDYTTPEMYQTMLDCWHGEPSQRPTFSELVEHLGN
In words: KDR Kinase Assay, HTRF (assay 5). As to conditions: 10 μM ATP. On the procedure: Assay 5: KDR Kinase Assay
KDR inhibitory activity of compounds of the present invention was quantified employing the KDR HTRF assay as described in the following paragraphs.
GST-tagged recombinant kinase domain of the human KDR expressed in SF-9 cells was used as kinase. As substrate for the kinase reaction the biotinylated peptide biotin-Ahx-DFGLARDMYDKEYYSVG (C-terminus in acid form) was used which can be purchased e.g. form the company Biosynthan GmbH (Berlin-Buch, Germany). KDR was incubated for 45 min at 22° C. in the presence of different concentrations of test compounds in 5 μl assay buffer [50 mM Hepes/NaOH pH 7.0, 25 mM MgCl2, 5 mM MnCl2, 1.0 mM dithiothreitol, 0.1 mM sodium ortho-vanadate, 10 μM adenosine-tri-phosphate (ATP), 0.5 μM substrate, 0.001% (v/v) Nonidet-P40 (Sigma), 1% (v/v) dimethylsulfoxide]. The concentration of KDR was adjusted depending of the activity of the enzyme lot and was chosen appropriate to have the assay in the linear range. The reaction was stopped by the addition of 5 μl of a solution of HTRF detection reagents (0.1 μM streptavidine-XLent and 2 nM PT66-Eu-Chelate, an europium-chelate labelled anti-phospho-tyrosine antibody from Perkin Elmer) in an aqueous EDTA-solution (125 mM EDTA, 0.2% (w/v) bovine serum albumin in 50 mM HEPES/NaOH pH 7.0).
as §1, with “substrate” for “substrate peptide”, “substrate.” for “substrate peptide.”

Assay [4] deals with T4, Plk1 (Homo sapiens, UniProt P53350).
T4 construct: N-terminally 6His-tagged full length Plk1; 6His (N); made in house
T4 sequence (P53350 whole entry): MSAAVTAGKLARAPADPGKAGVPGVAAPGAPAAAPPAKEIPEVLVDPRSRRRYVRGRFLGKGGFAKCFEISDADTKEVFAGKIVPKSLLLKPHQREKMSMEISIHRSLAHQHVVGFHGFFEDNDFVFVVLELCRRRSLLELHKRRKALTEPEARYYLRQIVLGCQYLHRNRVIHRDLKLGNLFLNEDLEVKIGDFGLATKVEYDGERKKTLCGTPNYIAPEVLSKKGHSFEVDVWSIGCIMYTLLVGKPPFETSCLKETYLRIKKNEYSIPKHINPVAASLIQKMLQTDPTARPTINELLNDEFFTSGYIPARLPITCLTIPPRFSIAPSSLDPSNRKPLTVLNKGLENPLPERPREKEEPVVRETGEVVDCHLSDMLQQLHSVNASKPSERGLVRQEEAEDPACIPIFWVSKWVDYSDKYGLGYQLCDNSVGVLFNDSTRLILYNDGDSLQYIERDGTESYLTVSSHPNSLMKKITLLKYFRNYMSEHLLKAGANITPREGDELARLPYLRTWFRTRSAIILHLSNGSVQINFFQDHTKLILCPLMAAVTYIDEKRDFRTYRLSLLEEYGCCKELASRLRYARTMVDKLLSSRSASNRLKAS
As to the kind of experiment: Plk1 Inhibition Assay, SPA (assay 6). As to conditions: ATP 0.5 μM. From the text:
Assay 6: Plk1 Inhibition Assay
Plk1 phosphorylates serine/threonine residues of the biotinylated substrate bovine α-casein in the presence of [γ-^33P]ATP. Detection of the radiolabeled phosphorylated product is achieved by binding to streptavidine-coated SPA beads. The biotin moieties of biotinylated casein bind with high affinity to the streptavidine. The radiolabeled biotinylated casein produced by the Plk1 kinase reaction is able to generate a chemoluminescent signal when strepatavidine-mediated binding occurs to the scintillant-containing surface of the beads due to the close proximity of the radiolabel and the scintillant. […] The signals obtained are therefore indicative of the Plk1 kinase activity. Measurement is performed in a Perkin-Elmer TopCount instrument.
Enzyme: Purified human recombinant PLK1 [N-terminally 6His-tagged full length Plk1], prepared in house, conc.: 0.4 μg/μl Substrate: biotinylated bovine α-casein. Unbiotinylated casein obtained from Sigma was biotinylated by standard procedures using N-hydroxysuccinimide (NHS) ester of biotin. SPA-beads: PVT streptavidin SPA Beads, Amersham (# RPNQ0007) Reference compound: Wortmannin Assay plates: 384-well plates, small volume, white, Greiner (#784075) Buffer Materials Hepes: Sigma (# H-4034), MnCl2: Sigma (# M-1787), MgCl2: Sigma [# M-1028], NaCl: Merck [#1.06404.100], DTT: Biomol (#04010), NP40: Fluka (#74385), Complete EDTA-free: Roche [#1873580], ATP: Amersham (#27-2056), 33P-gamma-ATP: Perkin Elmer (Easytides # NEG/602H), EDTA: Sigma (# E-7889), PBS: Gibco (#14190-094), ATP for stopping solution: Sigma #(A-7699), DMSO: Merck [#8.02912.1000] Sealing tape: Greiner (#676080) Reader: TopCount instrument (PerkinElmer)
Assay buffer: 2.5 mM MnCl2, 5 mM MgCl2, 120 mM NaCl, 1 mM DTT, 50 mM Hepes pH 7.0, 0.01% NP40, 1× Complete (protease inhibitor cocktail) Enzyme working solution: 2.86 ng/μl PLK1 in assay buffer Substrate working solution: 1 μM ATP, 1.4 μM biotinylated a-Casein, 2.0 nCi/μl in assay buffer Stop/Detection solution: 50 μM ATP, 20 mM EDTA, 5 μg/μl beads in PBS 3. Assay protocol for small volume screen (all steps at 20° C., pipetted with CyBi-Well pipettor) • 1. 0.75 μl Compound in 30% or 100% DMSO • 2. addition of 3.5 μl Enzyme working solution • 3. addition of 3.5 μl Substrate working solution incubation 180 min • 4. addition of 10 μl Stop/Detection solution • 5. sealing of the plates, incubation 30 min, 10 min centrifugation at 1500 rpm • 6. Measurement in TopCount reader (60 sec/well)
Final concentrations, calculated for 7 μl reaction volume: PLK1 10 ng/well; a-Casein 0.7 μM; ATP 0.5 μM; gamma-33P-ATP 7 nCi/well, 2.5 mM MnCl2, 5 mM MgCl2, 120 mM NaCl, 1 mM DTT, 50 mM Hepes pH 7.0, 0.01% NP40, 1× Complete, 3% or 10% DMSO
The data were normalised (enzyme reaction without inhibitor=0% inhibition, enzyme reaction in the presence of 3.0 E-06 M wortmannin=100% inhibition) and IC50 values were calculated by a 4-parameter fit using an in house software.

Here are results for five compounds from patent US20090005373A1, “SUBSTITUTED SULFONAMIDO-MACROCYCLES AS TIE2 INHIBITORS AND SALTS THEREOF, PHARMACEUTICAL COMPOSITIONS COMPRISING SAME, METHODS OF PREPARING SAME AND USES OF SAME” (priority 2006, published 2009).

T1 sequence (Q02763 770-1124 limits assumed): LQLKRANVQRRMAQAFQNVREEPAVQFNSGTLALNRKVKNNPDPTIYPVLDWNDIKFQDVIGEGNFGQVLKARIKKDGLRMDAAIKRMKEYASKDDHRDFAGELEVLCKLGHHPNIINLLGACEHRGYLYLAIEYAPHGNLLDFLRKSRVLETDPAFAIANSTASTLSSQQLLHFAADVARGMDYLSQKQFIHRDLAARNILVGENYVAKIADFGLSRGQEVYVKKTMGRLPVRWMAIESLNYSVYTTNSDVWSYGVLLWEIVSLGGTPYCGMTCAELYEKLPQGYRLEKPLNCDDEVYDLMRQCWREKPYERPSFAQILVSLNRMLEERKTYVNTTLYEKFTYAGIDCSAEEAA

Turning to `O=C(NCCC#Cc1cnc2nc1NCCCNS(=O)(=O)c1cccc(c1)N2)Nc1ccccc1` [Example 6, 1-[4-(13,13-Dioxo-13λ^6-thia-2,4,8,12,19-pentaaza-tricyclo[12.3.1.1^3,7]-nonadeca-1(18),3(19),4,6,14,16-hexaen-6-yl)-but-3-ynyl]-3-phenyl-urea], the IC50 (as a rule, the concentration that inhibits the measured activity by half) in assay [1] is 100 to 1000 nM; in assay [2] it was 1000 to 10000 nM; in assay [3] it was not above 100 nM; in assay [4] it was more than 10000 nM.
The like results for `O=C(NCC#Cc1cnc2nc1NCCCNS(=O)(=O)c1cccc(c1)N2)NCc1ccccc1` [Example 5, 1-Benzyl-3-[3-(13,13-dioxo-13λ^6-thia-2,4,8,12,19-pentaaza-tricyclo[12.3.1.1^3,7]-nonadeca-1(18),3(19),4,6,14,16-hexaen-6-yl)-prop-2-ynyl]-urea] were, in that order, not above 100 nM, more than 10000 nM, 100 to 1000 nM and more than 10000 nM.
Consider `Cc1ccc(F)c(S(=O)(=O)NCCC#Cc2cnc3nc2NCCCNS(=O)(=O)c2cccc(c2)N3)c1` [Example 13, N-[4-(13,13-Dioxo-13λ^6-thia-2,4,8,12,19-pentaaza-tricyclo[12.3.1.1^3,7]-nonadeca-1(18),3(19),4,6,14,16-hexaen-6-yl)-but-3-ynyl]-2-fluoro-5-methyl-benzene-sulfonamide], for which the IC50 is not above 100 nM in assay [1], more than 10000 nM in assay [2], not above 100 nM in assay [3] and more than 10000 nM in assay [4].
As to `O=S1(=O)NCCCNc2nc(ncc2C#CCNS(=O)(=O)c2cccc(Cl)c2Cl)Nc2cccc1c2` [Example 8, 2,3-Dichloro-N-[3-(13,13-dioxo-13λ^6-thia-2,4,8,12,19-pentaaza-tricyclo[12.3.1.1^3,7]-nonadeca-1(18),3(19),4,6,14,16-hexaen-6-yl)-prop-2-ynyl]-benzenesulfonamide], the IC50 is 100 to 1000 nM in assay [1], 1000 to 10000 nM in assay [2], not above 100 nM in assay [3] and more than 10000 nM in assay [4].
In the case of `O=C(NCC#Cc1cnc2nc1NCCCNS(=O)(=O)c1cccc(c1)N2)Nc1cccc(C(F)(F)F)c1` [Example 4, 1-[3-(13,13-Dioxo-13λ^6-thia-2,4,8,12,19-pentaaza-tricyclo[12.3.1.1^3,7]-nonadeca-1(18),3(19),4,6,14,16-hexaen-6-yl)-prop-2-ynyl]-3-(3-trifluoromethyl-phenyl)-urea], the IC50 in assay [1] was not above 100 nM; in assay [2], more than 10000 nM; in assay [3] it was not above 100 nM; in assay [4], more than 10000 nM.
